Reference: the supplement of paper PMC10307832

Tests used:
Test in all cases: relative viability (nuclei count vs DMSO), 5 days (fraction); higher = more cells survive
Daporinad + Lapatinib = compound: O=C(/C=C/c1cccnc1)NCCCCC1CCN(C(=O)c2ccccc2)CC1 [Daporinad] + CS(=O)(=O)CCNCc1ccc(-c2ccc3ncnc(Nc4ccc(OCc5cccc(F)c5)c(Cl)c4)c3c2)o1 [Lapatinib] (partner 2 µM)
Outline: (§1)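 Dosing by pin tool came one day after lung cancer cell lines were seeded in 1536-well plates, using either one drug or a fixed anchor-drug dose plus five library-drug doses (not always all listed) in √10 steps. After 5 days, nuclei were counted on 4× images. Relative viability is treated-well nuclei count divided by vehicle-well nuclei count, and values are medians of duplicate plates.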

R406 + Foretinib = compound: COc1cc(Nc2ncc(F)c(Nc3ccc4c(n3)NC(=O)C(C)(C)O4)n2)cc(OC)c1OC [R406] + COc1cc2c(Oc3ccc(NC(=O)C4(C(=O)Nc5ccc(F)cc5)CC4)cc3F)ccnc2cc1OCCCN1CCOCC1 [Foretinib] (partner 0.25 µM)
Outline: as §1

Daporinad + OSI-027 = compound: O=C(/C=C/c1cccnc1)NCCCCC1CCN(C(=O)c2ccccc2)CC1 [Daporinad] + COc1cccc2cc(-c3nc([C@H]4CC[C@H](C(=O)O)CC4)n4ncnc(N)c34)[nH]c12 [OSI-027] (partner 0.5 µM)
Outline: as §1

Daporinad + Pemetrexed = compound: O=C(/C=C/c1cccnc1)NCCCCC1CCN(C(=O)c2ccccc2)CC1 [Daporinad] + Nc1nc2[nH]cc(CCc3ccc(C(=O)N[C@@H](CCC(=O)O)C(=O)O)cc3)c2c(=O)[nH]1 [Pemetrexed] (partner 0.2 µM)
Outline: as §1

| Cell Line | relative viability (Daporinad + Lapatinib; first compound 0.0005 µM) | relative viability (Daporinad + Lapatinib; first compound 0.001581 µM) | relative viability (Daporinad + Lapatinib; first compound 0.005 µM) | relative viability (Daporinad + Lapatinib; first compound 0.01581 µM) | relative viability (R406 + Foretinib; first compound 0.08 µM) | relative viability (R406 + Foretinib; first compound 0.253 µM) | relative viability (R406 + Foretinib; first compound 0.8 µM) | relative viability (R406 + Foretinib; first compound 2.53 µM) | relative viability (R406 + Foretinib; first compound 8 µM) | relative viability (Daporinad + OSI-027; first compound 0.0005 µM) | relative viability (Daporinad + OSI-027; first compound 0.001581 µM) | relative viability (Daporinad + OSI-027; first compound 0.005 µM) | relative viability (Daporinad + OSI-027; first compound 0.01581 µM) | relative viability (Daporinad + Pemetrexed; first compound 0.0005 µM) | relative viability (Daporinad + Pemetrexed; first compound 0.001581 µM) | relative viability (Daporinad + Pemetrexed; first compound 0.005 µM) | relative viability (Daporinad + Pemetrexed; first compound 0.01581 µM) |
| --- | --- | --- | --- | --- | --- | --- | --- | --- | --- | --- | --- | --- | --- | --- | --- | --- | --- |
| NCI-H1944 | 0.849 | 0.875 | 0.802 | 0.804 | 0.867 | 0.93 | 0.966 | 0.756 | 0.682 | 0.447 | 0.422 | 0.527 | 0.517 | 0.607 | 0.716 | 0.706 | 0.577 |
| NCI-H1975 | 1.03 | 1 | 0.917 | 0.826 | 0.9 | 1.05 | 0.986 | 0.492 | 0.227 | 0.753 | 0.738 | 0.8 | 0.672 | 0.3 | 0.313 | 0.31 | 0.256 |
| NCI-H1993 | 0.78 | 0.811 | 0.977 | 0.793 | 0.72 | 0.756 | 0.846 | 0.642 | 0.577 | 0.618 | 0.508 | 0.55 | 0.542 | 0.54 | 0.561 | 0.644 | 0.567 |
| NCI-H2009 | 1.3 | 1.02 | 1.07 | 0.9 | 1.19 | 1.35 | 1.17 | 1.27 | 0.368 | 0.599 | 0.739 | 0.614 | 0.381 | 1.04 | 1.01 | 0.872 | 0.545 |
| NCI-H2023 | 0.699 | 0.946 | 0.76 | 0.843 | 0.905 | 0.703 | 0.768 | 0.896 | 0.368 | 0.35 | 0.458 | 0.395 | 0.455 | 0.224 | 0.231 | 0.267 | 0.202 |
| NCI-H2085 | 0.739 | 0.741 | 0.871 | 0.855 | 0.847 | 1.08 | 0.973 | 0.912 | 0.289 | 0.695 | 0.773 | 0.817 | 0.852 | 0.843 |  | 0.994 | 1.04 |
| NCI-H2087 | 0.99 | 0.979 | 1.18 | 1.14 | 1.2 | 1.05 | 1.04 |  | 0.609 | 0.474 | 0.693 | 0.694 | 0.538 | 0.675 | 0.739 | 0.711 | 0.764 |
| NCI-H2126 | 0.799 | 0.677 | 0.752 | 0.82 | 1.16 | 0.824 | 1.26 | 1.04 | 1 | 0.718 | 0.592 | 0.689 | 0.756 | 0.644 | 0.68 | 0.694 | 0.7 |
| NCI-H2170 | 0.285 | 0.263 | 0.274 | 0.276 | 0.964 | 1.11 | 1 | 0.916 | 0.814 | 0.66 | 0.734 | 0.793 | 0.699 | 0.277 | 0.25 | 0.252 | 0.252 |
| NCI-H2228 | 1.14 | 1.75 | 1.52 | 1.12 | 0.798 | 1.01 | 0.972 | 0.567 | 0.337 | 0.561 | 0.552 | 0.915 | 0.731 | 0.342 | 0.307 | 0.304 | 0.406 |
| NCI-H2347 | 1.14 | 0.781 | 1.06 | 1.05 | 1.11 | 1.09 | 1.29 | 0.61 | 0.348 | 0.463 | 0.377 | 0.335 | 0.489 | 0.441 | 0.402 | 0.472 | 0.454 |
| NCI-H2405 | 1.1 | 1.25 | 1.12 | 0.444 | 0.961 | 1.15 | 1.11 | 0.934 | 0.775 | 0.698 | 0.645 | 0.724 | 0.626 | 1.17 | 1.14 | 1.03 | 0.413 |
| NCI-H3122 | 1.01 | 1.12 | 1.01 | 1.02 | 0.962 | 0.959 | 0.931 |  | 0.887 | 0.851 | 1.18 | 0.98 | 0.845 | 0.199 | 0.185 | 0.185 | 0.203 |
| PC-3 [JPC-3] | 0.433 | 0.459 | 0.437 | 0.455 | 0.981 | 1.08 | 1.09 | 0.827 | 0.372 | 0.802 | 0.707 | 0.874 | 0.823 | 1.05 | 1.14 | 1.34 | 1.07 |
| PC-14 | 0.271 | 0.383 | 0.31 | 0.393 | 0.919 | 0.941 | 0.97 | 0.875 | 0.635 | 0.708 | 1.04 | 0.917 | 0.604 | 0.0976 | 0.126 | 0.153 | 0.146 |
| RERF-LC-KJ | 0.682 | 0.803 | 0.799 | 0.888 | 0.937 | 0.951 | 0.997 | 0.785 | 0.809 | 0.541 | 0.63 | 0.648 | 0.612 | 0.465 | 0.482 | 0.587 | 0.568 |
| SK-LU-1 | 0.889 | 0.907 | 1.09 | 0.969 | 0.708 | 0.816 | 0.992 | 0.439 | 0.12 | 0.358 | 0.335 | 0.454 | 0.348 | 1.04 | 0.998 | 1.09 | 0.941 |
| SK-MES-1 | 0.464 | 0.484 | 0.51 | 0.471 | 0.892 | 0.921 | 0.976 | 0.49 | 0.396 | 0.532 | 0.608 | 0.734 | 0.601 | 1.04 | 0.816 | 0.955 | 0.64 |
| SW 1573 | 1.12 | 0.322 | 1.2 | 0.833 | 0.908 | 0.915 | 0.887 | 0.932 | 0.665 | 0.564 | 0.705 | 0.581 | 0.455 | 0.798 | 0.74 | 0.7 | 0.461 |
